The source of these data is PubChem BioAssay (NCI).

Assay in all cases: DTP human tumour cell line panel, 48 h
Experiment [1] deals with RXF 393 renal.
The subject of experiment [2] is SNB-75 CNS.
Experiment [3] has as its system MCF7 breast.
The test system of experiment [4] is NCI/ADR-RES ovarian.
Experiment [5] has as its system NCI-H460 lung.
The subject of experiment [6] is K-562 leukemia.
Experiment [7] concerns T-47D breast.
The subject of experiment [8] is SR leukemia.
The test system of experiment [9] is SK-MEL-5 melanoma.
For experiment [10], the system named is EKVX NSCLC.

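Interpolation was linear, between the two tested concentrations surrounding the appropriate level; five concentrations were tested over 48 hours in 96-well plates. The concentration for 50% growth inhibition is given as GI50. At the TGI there is no net growth.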

The term TGI denotes the concentration at which net growth stops. The low end stands for greater sensitivity of the cells, the high end for lower sensitivity of the cells. For orientation: GI50 means the concentration that inhibits growth by half.

With `CO/C(=N\N=C\c1cccc(C(F)(F)F)c1)c1ccncc1`, the TGI was 33.2 µM in [1]; 52.9 µM in [2]; over 100 µM in [3]; 48.8 µM in [5]; over 100 µM in [6]; over 100 µM in [7]. The TGI was found to be 46.3 µM in experiment [8], 32.4 µM in [9] and 77.3 µM in [10]. The GI50 in experiment [3] was 7.33 µM; in experiment [4] it was 5.37 µM; in [6] it was 3.08 µM; in experiment [8] it was 3.33 µM.
`N#C[C@H]1Nc2ccccc2[C@@H](O)C1O` (stereo partly specified): the TGI in experiment [1], in experiment [2], in experiment [3], in experiment [4], in experiment [5] and in experiment [6] was over 100 µM each time. The TGI in experiment [7], in experiment [8], in experiment [9] and in [10] was over 100 µM each time.
Regarding `OCc1ccc(Oc2c3ccccc3nc3occc23)cc1`, the GI50 is 4.7 µM in [1]; 31.7 µM in experiment [2]; 16.6 µM in experiment [3]; 20.2 µM in [4]; 20.8 µM in experiment [5]; 30.9 µM in [6]. Moreover, the GI50 in experiment [7] is 6.94 µM; in [8] it was 38.5 µM. In addition, the TGI is 23.2 µM in [1]; 89.8 µM in [2]; 39.5 µM in experiment [3]; 49 µM in [4]; 68 µM in experiment [5]; over 100 µM in experiment [6]. The figures for the total growth inhibition concentration (TGI) in experiment [7] and in experiment [8] were 62.4 µM and over 100 µM, respectively.
With `COc1ccc(-c2csc3c2-n2cccc2C3=O)cc1O`, the GI50 in experiment [2] was 0.0281 µM; in [3], 0.0326 µM; in experiment [4], 0.0143 µM; in [5] it was 0.0375 µM; in experiment [6], under 0.01 µM; in experiment [7], 39.4 µM. Moreover, the GI50 in [8] was under 0.01 µM; in [9] it was 0.0326 µM. The TGI in experiment [2] is over 100 µM; in experiment [3], over 100 µM; in [4], over 100 µM; in experiment [5] it was 13.1 µM; in experiment [6], over 100 µM; in [7] it was over 100 µM. The TGI in experiment [8] amounted to 31.9 µM; in experiment [9], 0.237 µM.
With `O=[N+]([O-])c1cccc(-c2cc(-c3cc(Br)ccc3O)[nH]n2)c1`, the GI50 in [2] is 2.68 µM; in [3], 1.42 µM; in experiment [4], 3.11 µM; in [5], 1.9 µM; in experiment [6] it was 1.66 µM; in [7], 2.64 µM. Besides, the GI50 in [8] is 1.66 µM; in experiment [9], 1.61 µM; in experiment [10], 2 µM. Besides, the TGI in experiment [2] was 14.5 µM; in experiment [3] it was 7.05 µM; in experiment [4], 8.94 µM; in [5], 10.4 µM; in experiment [6], 4.57 µM; in [7], 8.84 µM. In addition, the TGI in [8] worked out at 4.8 µM; in experiment [9] it was 3.35 µM; in experiment [10], 7.91 µM.
`CCCCCCN1CCN(Cc2ccc(N(CC)CC)cc2)C(=O)C1=O`: the GI50 in experiment [2] was 1.95 µM; in experiment [3] it was 0.58 µM; in experiment [4] it was 2.72 µM; in experiment [5] it was 3.35 µM; in [6], 0.832 µM; in experiment [7] it was 5.69 µM. Besides, the values for the GI50 in experiment [8] and in [9] were 1.03 µM and 0.412 µM, respectively. Also, the total growth inhibition concentration (TGI) in experiment [2] is 13.1 µM; in experiment [3], 62.2 µM; in experiment [5], 17.3 µM; in experiment [6], 75.4 µM; in experiment [7], over 100 µM; in [8] it was 13.4 µM. In experiment [9], the TGI was 11.3 µM.
`C=C1C(=O)O[C@H]2C[C@@H]1CCC1(C)OC1CC/C(C)=C/CC[C@H]2C` (stereo partly specified): the GI50 in experiment [1] was 21.4 µM; in experiment [3], 18 µM; in [4] it was 18.5 µM; in experiment [5], 17.1 µM; in experiment [6] it was 21.6 µM; in [7], 16.9 µM. The GI50 in experiment [8] was 18.1 µM; in experiment [9], 17.3 µM; in experiment [10], 24.3 µM. Also, the TGI in experiment [1] was determined as 43.1 µM; in experiment [3], 36.6 µM; in experiment [4], 35.4 µM; in [5] it was 33.1 µM; in [6], 41.2 µM; in experiment [7] it was 37.6 µM. Also, the values for the TGI in experiment [8], in experiment [9] and in experiment [10] were 33 µM, 31.5 µM and 44.3 µM, respectively.
Consider `COc1cc(OC)cc(-c2cncn2-c2ccc(-c3nc4cc(OC)cc(OC)c4s3)cc2)c1`, for which the GI50 in experiment [1] was 6.58 µM; in experiment [2] it was 3.28 µM; in [3], 3.82 µM; in [4], 2.58 µM; in experiment [5], 4.41 µM; in experiment [6], 3.22 µM. In addition, the GI50 is 5.77 µM in [7], 3.3 µM in experiment [8] and 3.29 µM in [9]. Moreover, the TGI in [1] was over 100 µM; in experiment [2], 17.9 µM; in experiment [3], over 100 µM; in experiment [4], over 100 µM; in experiment [5], over 100 µM; in [6], over 100 µM. In addition, the TGI in experiment [7], in experiment [8] and in experiment [9] was over 100 µM in each case.
Regarding `CC1(C)N[P+]2(Nc3ccccc3O2)OC1=O` (stereo unspecified), the TGI in experiment [1], in experiment [2], in experiment [3], in [4], in [5] and in [6] was over 100 µM throughout. Further, the TGI in experiment [7], in [9] and in experiment [10] was over 100 µM throughout.
As to `COc1ccc(-c2cc(-c3nnc(SCC(=O)Nc4ccc(C(C)=O)cc4)o3)c3ccccc3n2)cc1`, the GI50 in experiment [1] is 18.1 µM; in [2], 3.65 µM; in experiment [3], over 100 µM; in experiment [4] it was over 100 µM; in [5] it was over 100 µM; in [6], over 100 µM. In addition, the GI50 in experiment [7], in experiment [9] and in experiment [10] was over 100 µM throughout. The TGI in experiment [1] was 57.5 µM; in [2], 22.6 µM; in experiment [3] it was over 100 µM; in experiment [4], over 100 µM; in experiment [5], over 100 µM; in [6], over 100 µM. For the same compound, the TGI in [7], in experiment [9] and in experiment [10] was over 100 µM in each case.
